Each structure is given as a SMILES string.

Broadly, the IC50 is the concentration that gives 50% inhibition.

A short description of the test: Antagonist activity at AR in human LNCAP cells assessed as reduction in DHT-induced cell growth treated for every 2 days for 4 days by hemocytometry.

As for `COc1ccc(O)c(C(=O)/C=C/c2ccccc2OC)c1`, the 50% inhibitory concentration (IC50) was > 10 µM.

With `CC(C)Oc1ccccc1/C=C/C(=O)c1cc(Br)ccc1O`, the half-maximal inhibitory concentration (IC50) was determined as 9.11 µM. The value for `O=C(/C=C/c1ccccc1O)c1cc(Cl)ccc1O` was 3.74 µM; that for `O=C1CC(c2ccccc2O)Oc2ccccc21` (stereo not given) [2-(2-Hydroxy-phenyl)-chroman-4-one] was 6.4 µM. `O=c1cc(-c2ccccc2O)oc2ccccc12` [2-(2-Hydroxyphenyl)-4H-chromen-4-one (3d)]: the IC50 was > 10 µM.

The record behind these values is BindingDB's records for doi:10.1016/j.ejmech.2018.08.069 (Kanazawa University, 2018).
